Experimental data published in patent US5043340A, “Derivatives of 4-desacetyl VLB C-3 carboxhydrazide” (Eli Lilly and Company, priority 1990, dated 1991).
Structures can show the parent of a compound that is named as a salt.

What was measured:
[1] = system: Ridgeway osteogenic sarcoma; conditions: mouse, in vivo; cited from earlier work
Gardner lymphosarcoma = conditions: mouse, in vivo; cited from earlier work
P 1534(J) leukemia = conditions: mouse, in vivo; cited from earlier work
transplanted tumors = conditions: mouse, in vivo; cited from earlier work
[2] = system: human leukemic cells (CCRF-CEM cell line); experiment: CCRF-CEM Cytotoxicity Assay (72 h, Coulter particle counter); assay type: cell-based; conditions: 37° C., read-out: IC50 (concentration giving 50% growth inhibition)
Procedure: The CEM cells were grown in RPMI 1640 media (MA Bioproducts) at 37° C. in humidified atmospheric conditions of 95% air and 5% CO2. The cells were grown in static suspension and maintained in log growth phase at a concentration of 3-7×10^5 cells/ml. The cells were dispersed in wells at a concentration of 4.8×10^4 /well. The drug was dissolved in dimethyl sulfoxide and was added at different dilutions to the cluster plates (wells). The cluster plates were incubated at 37° C. for 72 hours. After 72 hours the wells were read using a ZBI Coulter particle counter. Table 3 below gives the results of such testing of several compounds represented by Formula I above. In the table, Column 1 gives the name of the compound and Column 2 gives the IC50 (concentration giving 50% growth inhibition) in μg/ml.

[3] = system: human lung adenocarcinoma cells (P3/UCLA cell line); experiment: P3/UCLA - GIEMSA ASSAY (5 days); assay type: cell-based; conditions: 120 h, 37° C., free compound, read-out: IC50 (concentration giving 50% growth inhibition)
[4] = system: P3/UCLA lung adenocarcinoma xenografts; experiment: in vivo test against xenografts of P3/UCLA lung adenocarcinoma in female nude mice; conditions: days 2, 5 and 8, 28-day results
Procedure: The compounds were tested in vivo against xenografts of P3/UCLA lung adenocarcinoma in female nude mice. The test was begun by implanting each mouse with 10^7 P3/UCLA tumor cells, subcutaneously. On each of days 2, 5, and 8 after implantation, each mouse was injected with a conjugate or a compound in physiological buffered saline. Control mice were injected with saline only. The doses of conjugate or of vinca intermediate (based on vinca hydrazide content) are indicated below. The size of the tumors induced by implantation was measured on days 14, 21, and 28 after implantation. Each treatment group consisted of five mice.

[5] = in humans, compared with vincristine; cited from earlier work
[6] = system: vincristine-resistant leukemias; conditions: in humans; cited from earlier work

## CCC1(O)CC2CN(CCc3c([nH]c4ccccc34)C(C(=O)OC)(c3cc4c(cc3OC)N(C)C3C(O)(C(=O)NN)C(O)C5(CC)C=CCN6CCC43C65)C2)C1 (stereo not shown) [4-desacetyl VLB C-3 carboxhydrazide]
[1]
  activity against Ridgeway osteogenic sarcoma: active
Gardner lymphosarcoma
  activity against Gardner lymphosarcoma: active
P 1534(J) leukemia
  activity against P 1534(J) leukemia: active
Transplanted tumors
  anti-tumor activity: active anti-tumor agent against transplanted tumors in mice

## CCC1(O)CC2CN(CCc3c([nH]c4ccccc34)C(C(=O)OC)(c3cc4c(cc3OC)N(C)C3C(O)(C(=O)NNC(C)CCCCC(=O)NCCC(=O)O)C(O)C5(CC)C=CCN6CCC43C65)C2)C1 (stereo not shown) [Example 17, 4-Desacetyl VLB C-3 N^2-(6-[(2-carboxyethyl)amino]-1-methyl-6-oxohexyl)carboxhydrazide sulfate salt]
[2]
  IC50: 0.039 µg/mL
[3]
  IC50: 0.217 µg/mL
[4]; 1.00 mg/kg (based on vinca hydrazide content)
  % Inhibition: 20%
[4]; 2.00 mg/kg (based on vinca hydrazide content)
  % Inhibition: 39%

## CC[C@]1(O)C[C@@H]2CN(CCc3c([nH]c4ccccc34)[C@@](C(=O)OC)(c3cc4c(cc3OC)N(C)[C@H]3[C@@](O)(C(N)=O)[C@H](O)[C@]5(CC)C=CCN6CC[C@]43[C@@H]65)C2)C1 [vindesine, 4-desacetyl VLB C-3 carboxamide]
[5]
  neurotoxicity: less neurotoxicity than does vincristine
[6]
  effective against vincristine-resistant leukemias: apparently effective against vincristine-resistant leukemias
